According to publication PMC10534672, “A Nucleus-Targeting WT1 Antagonistic Peptide Encapsulated in Polymeric Nanomicelles Combats Refractory Chronic Myeloid Leukemia” (Pharmaceutics, 2023):
Ends that are not written are not given here.

Legend:
[1] = system: WT1+ BP-CML xenograft (K562) mice; assay: Splenic infiltration (Ki67 staining of spleen); format: in vivo, BALB/c nude mice; conditions: after 14 days daily treatment, n = 3
[2] = Encapsulation efficiency of PEG-PE micelles by ultrafiltration; format: physicochemical; conditions: n = 3
Description: The ability of PEG-PE micelles to encapsulate WIP2W was assessed using an ultrafiltration method. Solutions of FITC-WIP2W-loaded micelles (with PEG-PE concentrations of 5, 10, 30, 50, 100, and 200 μM, and FITC-WIP2W at 10 μM) were placed into an ultra-centrifugal filter (MWCO 100,000, Millipore, Burlington, MA, USA). They were then centrifuged at 12,000× g for 30 min. The fluorescence intensity of the filtrate was subsequently measured spectrophotometrically. A concentration-to-fluorescence intensity relationship was then derived to determine the amount of unencapsulated FITC-WIP2W in the filtrate. From this, the encapsulation efficiency (EE%) of PEG-PE micelles for WIP2W can be calculated, as shown below. EE% = incorporated WIP2W/initial WIP2W added × 100%(1)

[3] = system: L02 cells; assay: Cytotoxicity assay (CCK-8); conditions: L02, up to 40 μM, 24 h
Description: (§1) K562 (1.5 × 10^4/well) and L02 (8 × 10^3/well) cells were seeded in 96-well plates and incubated with gradient concentrations of peptides or micelles in complete mediums. After 24 or 48 h of incubation, each well was spiked with CCK-8 agent (10 μL) for another 2 h. Absorption was detected by a spectrophotometer at 450 nm (Molecular Devices, San Jose, CA, USA), and IC50 values were calculated by curve fitting.

[4] = system: K562 cells; assay: Intracellular localization by confocal laser scanning microscopy; format: cell-based, human; conditions: FITC-WIP2W 10 μM, K562, 37 °C, 3.5 h, Hoechst33342
Description: The precise localization of WIP2W was identified using the same microscope. K562 cells, after being exposed to FITC-WIP2W (10 μM) at 37 °C for 3.5 h, were gathered and stained with Hoechst33342. They were then moved to confocal dishes, where fluorescence data were captured.

[5] = target: T1, WT1 protein (Homo sapiens, UniProt P19544); assay: Pull-down assay with biotin-WIP2W on streptavidin magnetic beads, anti-WT1 immunoblot; format: binding; parameters: incubated with protein lysates, including the nuclear and cytoplasmic proteins from K562 cells; endogenous in cells; host or cells: K562 cells; conditions: nuclear and cytoplasmic protein lysates of K562 cells, 2 h at 25 °C, anti-WT1 Western blot
T1 sequence (P19544 whole entry): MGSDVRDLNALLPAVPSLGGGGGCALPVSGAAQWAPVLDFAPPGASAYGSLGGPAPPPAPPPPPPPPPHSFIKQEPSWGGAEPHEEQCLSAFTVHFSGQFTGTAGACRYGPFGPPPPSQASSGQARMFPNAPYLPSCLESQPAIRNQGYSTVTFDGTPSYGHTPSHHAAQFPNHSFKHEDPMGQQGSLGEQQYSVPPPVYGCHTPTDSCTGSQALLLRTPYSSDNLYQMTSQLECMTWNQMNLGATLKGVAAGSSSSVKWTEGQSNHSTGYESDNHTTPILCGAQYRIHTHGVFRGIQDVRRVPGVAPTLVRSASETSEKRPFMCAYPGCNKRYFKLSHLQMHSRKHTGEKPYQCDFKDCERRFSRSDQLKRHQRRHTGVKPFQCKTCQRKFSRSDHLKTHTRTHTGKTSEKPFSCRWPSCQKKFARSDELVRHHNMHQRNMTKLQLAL
Description: Proteins from different localizations were harnessed for peptide–protein interaction studies. […] The bound WIP2W beads were magnetically separated, discarding the unattached WIP2W molecules in the leftover solution. The combined protein extracts from the whole cell, nucleus, and cytoplasm were then exposed to the WIP2W beads for another 2 h at 25 °C. Finally, the bead eluates were probed using an anti-WT1 antibody.

[6] = system: K562 cells; assay: Cellular uptake by flow cytometry; format: cell-based, human; conditions: FITC-WIP2W 0.05, 0.5 and 5 μM, K562, 37 °C, 2 h, n = 3
Description: The percentage of positive cells and their mean fluorescence intensity were then analyzed using a flow cytometer, with each condition tested in triplicate (n = 3).

[7] = system: WT1+ BP-CML xenograft (K562) mice; conditions: single subcutaneous injection, 30 mg/kg WIP2W (FITC-labelled), 4 h, IVIS of heart, liver, spleen, lung, kidney
Description: In this study, a WT1^+ BP-CML xenograft mouse model was developed. K562 cells (1 × 10^7/animal) were injected subcutaneously into the flanks of 5-week-old female BALB/c nude mice to generate primary BP-CML tumors. Once the tumors became noticeable, the mice were euthanized, and tumor cells were harvested. These cells were then reintroduced subcutaneously into a new set of hosts (1 × 10^7/animal) for further therapeutic investigations. […] Four hours post-administration, the mice were euthanized. Their tumors and primary organs were then extracted and assessed for fluorescence using IVIS (in vivo imaging system) equipment from PerkinElmer, USA.

[8] = system: K562 cells
Description: as §1

[9] = system: WT1+ BP-CML xenograft (K562) mice; assay: In vivo antitumor efficiency; parameters: species or system BALB/c nude mice; conditions: tumors excised after 14 days daily s.c. treatment, WIP2W 30 mg/kg
Description: These tumor-bearing mice were then randomly assigned to one of four groups (n = 5 per group). […] The subcutaneous tumor volume (mm^3) and body weight (g) were recorded three times per week, and the tumor volume can be computed according to the following equation:Tumor volume (mm^3) = L × W × W/2(2) where “L” and “W” denote the maximum and minimum dimensions, respectively. On day 19, the mice were slaughtered, and the retrieved major organs and tumors were stained with hematoxylin and eosin (H&E), WT1, and Ki67, respectively.

[10] = system: K562 cells; assay: Cell cycle analysis (PI, flow cytometry); format: cell-based, human; conditions: K562, 10 μM, 24 h
Description: K562 cells were incubated in the absence and presence of WIP2W (10 μM) for 24 h. Subsequently, these cells were collected and fixed with 75% cold ethanol overnight, followed by treatment with propidium iodide (PI) and RNase A. Then, the cell fluorescence was examined using flow cytometry, and the cell cycle profiles were analyzed using FlowJo 10.

[11] = Biological safety in vivo (body weight, H&E of major organs)
[12] = target: T1, WT1 protein; assay: WT1 immunohistochemistry of excised tumors; format: in vivo, BALB/c nude mice; parameters: The excised tumors underwent immunohistochemical analysis using an anti-WT1 antibody; from tissue; host or cells: excised K562 xenograft tumours from BALB/c nude mice; conditions: anti-WT1 IHC, after 14 days daily s.c. treatment, WIP2W 30 mg/kg
Description: […]. […] […].

[13] = system: myeloid leukemia; conditions: cited from earlier work
Description: In CML, the influence of WT1 stems from its robust transcriptional control of genes associated with cell growth, metabolism, differentiation, and apoptosis. Interventions targeting WT1 can induce cell cycle arrest and apoptosis. […] Similarly, WT1-specific RNA interference led to an increase in G0/G1-phase cells and a decrease in S-phase cells. In this study, the WIP2W peptide halted the cell cycle in ...

Row | Compound | Ki67 staining of spleen (splenic infiltration of CML cells) [1] | Encapsulation efficiency (EE%) ([2]; molar ratio PEG-PE:WIP2W 3:1, FITC-WIP2W 10 μM in PBS, ultrafiltration MWCO 100,000, fluorescence) | Encapsulation efficiency (EE%) ([2]; molar ratio PEG-PE:WIP2W surpassed 10, FITC-WIP2W 10 μM in PBS, ultrafiltration, fluorescence) | Cytotoxicity in normal hepatic cell line L02 [3] | Intracellular localization [4] | Binding of WIP2W to WT1 protein (pull-down) [5] | Cellular uptake [6] | Distribution in major organs [7] | Cell viability ([8]; K562, 20 μM, 24 h, CCK-8, PBS control = 100%) | IC50 ([8]; read-out: IC50 (concentration that inhibited 50% K562 cell proliferation), K562, 24 h, CCK-8, n = 6) | H&E staining of tumor tissues [9] | G2/M phase compartment of cell cycle distribution ([10]; n = 3 (control 22.4%)) | G0/G1 phase compartment of cell cycle distribution ([10]; n = 3 (control 24.1%)) | Body weight ([11]; 14 days daily treatment, compared to control and imatinib groups) | H&E staining of major organs (systemic toxicity) ([11]; after 14 days daily treatment, imatinib 50 mg/kg i.p., WIP2W 30 mg/kg s.c.) | WT1 protein levels in tumor tissues relative to controls [12] | Effect on cell cycle progression [13]
1 | Cc1ccc(NC(=O)c2ccc(CN3CCN(C)CC3)cc2)cc1Nc1nccc(-c2cccnc2)n1 [imatinib, reference compound] | pronounced fluorescence in the spleen |  |  |  |  |  |  |  |  |  |  |  |  |  |  |  | 
2 | WWGGDQRRSWGRRRPDRRYGRKKRRQRRR [WIP2W] | negligible signs of metastatic CML cells in the spleen | approximately 72% | exceeded 95% | no apparent cytotoxicity | majority of the green fluorescence was pinpointed in K562 cells’ nuclei | specifically bind to the WT1 protein in both the nucleus and cytoplasm | concentration dependency | predominantly distributed in the liver and kidneys | < 10% | 9.7 µM | pronounced cell death | 14.1% | 32.4% | no significant weight loss | minimal systemic toxicity | significantly diminished | 
3 | COc1cc(/C=C/C(=O)CC(=O)/C=C/c2ccc(O)c(OC)c2)ccc1O [curcumin] |  |  |  |  |  |  |  |  |  |  |  |  |  |  |  |  | induce cell death and G2/M phase arrest
